From US7132271B2, “Methods for enhancing the production of viral vaccines in cell culture” (priority 1995, dated 2006) come the findings set out here.

The test system of this assay is human PKR. In words: Western blot analysis of PKR protein in U937 transfectants. The class given is cell-based. The following applies: U937-neo cells. As for the experimental part:
Cell extracts (100 μg) were separated on a 10% SDS-polyacrylamide gel and electrotransferred onto nitrocellulose membrane. The membranes were incubated with anti-PKR monoclonal antibody (Meurs et al. Cell 1990) at 1:1000 in BLOTTO (5% nonfat dry milk, 0.05% Tween-20 in Tris-buffered saline). Final detection of PKR was facilitated by probing with a secondary horseradish peroxidase-conjugated goat anti-mouse antibody (Santa Cruz Biotech) and using a chemiluminesence method (Amersham ECL).
(In general: A western blot detects proteins with antibodies after separation by electrophoresis.)

With IFN-γ: recombinant human IFN-γ, Amgen, the “PKR protein level following treatment with IFN” value is given as “increased”.
